Data reported in US7605168B2 (Plexxikon, Inc., priority 2004, dated 2009).

Experiments:
[1] = target: T1, PDE4B: catalytic domain of human PDE4B from S152-S528 (Homo sapiens, UniProt Q07343); experiment: PDE4 IC50 determination by Scintillation Proximity Assay (SPA), PDE4B catalytic domain; assay type: biochemical; settings: [3H]cAMP SPA, 30 min at 30° C.
T1 construct: The catalytic domain of human PDE4B from S152-S528; His6 (N, cleaved yes); thrombin cleavage site (N, cleaved yes); made in house; host or cells: E. coli BL21 (DE3) RIL
T1 sequence (Q07343 324-700): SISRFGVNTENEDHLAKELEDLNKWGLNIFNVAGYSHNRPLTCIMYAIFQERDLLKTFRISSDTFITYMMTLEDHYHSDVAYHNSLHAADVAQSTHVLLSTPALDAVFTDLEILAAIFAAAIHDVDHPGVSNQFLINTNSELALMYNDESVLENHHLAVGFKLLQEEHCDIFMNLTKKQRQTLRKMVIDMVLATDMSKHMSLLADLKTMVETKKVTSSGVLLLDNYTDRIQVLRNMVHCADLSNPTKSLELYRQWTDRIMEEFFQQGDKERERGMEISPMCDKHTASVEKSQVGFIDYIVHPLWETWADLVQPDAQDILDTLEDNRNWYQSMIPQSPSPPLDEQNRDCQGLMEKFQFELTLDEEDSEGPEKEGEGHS
Outline: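 Human PDE4B catalytic domain (80 ng/ml) hydrolysed [3H]cAMP in 50 mM Tris pH 7.5, 8.3 mM MgCl, 1.7 mM EGTA, 0.01% BSA for 30 min at 30 °C. Reaction was stopped with yttrium silicate SPA beads in 18 mM ZnSO4, and bound [3H]AMP was counted by scintillation. IC50 came from non-linear regression.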

[2] = target: T2, PDE4B2: full-length human PDE4B2 isozyme (Homo sapiens, UniProt Q07343); experiment: PDE4 IC50 determination by Scintillation Proximity Assay (SPA), full-length PDE4B2; assay type: biochemical; settings: cell lysate, [3H]cAMP SPA
T2 construct: made in house; host or cells: baculovirus infected insect cells (pFastBacHT)
T2 sequence (Q07343 with tags, fused parts or gaps isoform Q07343-2): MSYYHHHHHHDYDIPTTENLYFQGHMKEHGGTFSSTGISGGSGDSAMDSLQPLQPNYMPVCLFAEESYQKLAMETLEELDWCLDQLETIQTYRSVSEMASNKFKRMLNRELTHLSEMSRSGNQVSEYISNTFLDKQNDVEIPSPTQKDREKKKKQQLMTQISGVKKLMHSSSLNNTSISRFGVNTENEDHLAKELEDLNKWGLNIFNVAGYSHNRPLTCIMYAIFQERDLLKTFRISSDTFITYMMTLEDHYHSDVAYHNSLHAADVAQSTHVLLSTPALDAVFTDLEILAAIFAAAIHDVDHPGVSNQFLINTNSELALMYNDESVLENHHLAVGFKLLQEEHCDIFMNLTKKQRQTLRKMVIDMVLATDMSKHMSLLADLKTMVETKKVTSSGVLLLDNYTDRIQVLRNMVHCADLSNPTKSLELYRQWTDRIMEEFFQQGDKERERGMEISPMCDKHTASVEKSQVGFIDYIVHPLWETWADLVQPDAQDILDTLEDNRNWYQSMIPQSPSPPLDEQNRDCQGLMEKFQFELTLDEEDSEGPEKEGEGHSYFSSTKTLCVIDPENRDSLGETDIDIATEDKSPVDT
Outline: (§1)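 Unpurified enzyme from cell lysates (PDE4B2 2.5 μl, PDE4D5 0.083 μl of 50% glycerol stock/ml) hydrolysing [3H]cAMP in 50 mM Tris pH 7.5, 8.3 mM MgCl, 1.7 mM EGTA, 0.01% BSA, 30 min at 30 °C. Stopped with yttrium silicate SPA beads in 18 mM ZnSO4; bead-bound [3H]AMP counted. IC50 by non-linear regression.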

[3] = target: T3, PDE4D: catalytic domain S316-V692 (Homo sapiens, UniProt Q08499); experiment: PDE4 IC50 determination by Scintillation Proximity Assay (SPA), PDE4D catalytic domain; assay type: biochemical; settings: [3H]cAMP SPA, 30 min at 30° C.
T3 construct: pET15S PDE4D S316-V692-X; His6 (N, cleaved yes); thrombin cleavage site (N, cleaved yes); made in house; host or cells: E. coli BL21 (DE3) RIL
T3 sequence (Q08499 380-756): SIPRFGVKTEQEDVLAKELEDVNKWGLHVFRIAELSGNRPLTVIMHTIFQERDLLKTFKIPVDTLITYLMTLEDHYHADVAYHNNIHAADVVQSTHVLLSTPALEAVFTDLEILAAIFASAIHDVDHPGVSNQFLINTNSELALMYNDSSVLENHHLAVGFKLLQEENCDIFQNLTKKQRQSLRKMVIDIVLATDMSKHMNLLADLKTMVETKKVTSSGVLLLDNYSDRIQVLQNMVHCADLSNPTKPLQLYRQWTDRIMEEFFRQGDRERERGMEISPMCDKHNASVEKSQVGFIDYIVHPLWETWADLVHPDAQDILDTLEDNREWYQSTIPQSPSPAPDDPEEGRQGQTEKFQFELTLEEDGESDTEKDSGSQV
Method: IC50s were determined by Scintillation Proximity Assay (SPA). The principle of the assay is based on the fact that cAMP, the PDE4 substrate, binds weakly to Yittrium Silicate SPA beads, whereas AMP, the product of PDE4 hydrolysis binds strongly. Thus, the extent of PDE4 hydrolysis of a sample of [^3H]cAMP can be measured because only the [^3H]AMP produced by PDE4 hydrolysis will bind to the SPA beads and produce a scintillation signal.
[…] Enzyme was stored in 50% glycerol at −20°. See Example 144.
Compounds tested (see Tables 5 for compounds and results) were 3-fold serially diluted 11 times in DMSO from a starting concentration of 4 mM or 40 μM, depending on compound potency. 1 μl of each dilution was transferred into duplicate wells of a white polystyrene 384-well assay plate (Corning #3710). In addition to the compound dilutions, each assay plate contained control wells with 1 μl of DMSO (to define 0% enzyme inhibition) or 1 μl of 200 μM roflumilast (to define 100% enzyme inhibition). Using a Beckman FX robot, 10 μl of [^3H] cAMP (Amersham TRK559) at […] in assay buffer (50 mM Tris, pH 7.5; 8.3 mM MgCl; 1.7 mM EGTA; 0.01% BSA) was transferred to each assay well. Next, 10 μl of PDE4 enzyme in assay buffer was added and the plates were shaken for 30 s. at 1000 rpm to start the cAMP hydrolysis reaction. The concentrations of enzyme used were: PDE4B, 80 ng/ml; PDE4D, 4 ng/ml; PDE4B2, 2.5 μl of 50% glycerol stock/ml; PDE4D5 0.083 μl of 50% glycerol stock/ml. Assay plates were covered and incubated for 30 min. at 30° C. Reactions were stopped by robotic addition of 10 μl of 5 mg/ml SPA beads (Amersham RPNQ0013) in 18 mM ZnSO4. The assay plates were covered with clear plastic film, centrifuged for 1 min. at 1000 RPM to settle the SPA beads, and counted using a Wallac TriLux scintillation counter. IC50's were calculated from the raw assay data by non-linear regression curve fitting using the Assay Explorer software package from MDL.

[4] = target: T4, PDE4D5: full-length human PDE4D5 isozyme (Homo sapiens, UniProt Q08499); experiment: PDE4 IC50 determination by Scintillation Proximity Assay (SPA), full-length PDE4D5; assay type: biochemical; settings: cell lysate, [3H]cAMP SPA
T4 construct: made in house; host or cells: baculovirus infected insect cells (pFastBacHT)
T4 sequence (Q08499 with tags, fused parts or gaps isoform Q08499-6): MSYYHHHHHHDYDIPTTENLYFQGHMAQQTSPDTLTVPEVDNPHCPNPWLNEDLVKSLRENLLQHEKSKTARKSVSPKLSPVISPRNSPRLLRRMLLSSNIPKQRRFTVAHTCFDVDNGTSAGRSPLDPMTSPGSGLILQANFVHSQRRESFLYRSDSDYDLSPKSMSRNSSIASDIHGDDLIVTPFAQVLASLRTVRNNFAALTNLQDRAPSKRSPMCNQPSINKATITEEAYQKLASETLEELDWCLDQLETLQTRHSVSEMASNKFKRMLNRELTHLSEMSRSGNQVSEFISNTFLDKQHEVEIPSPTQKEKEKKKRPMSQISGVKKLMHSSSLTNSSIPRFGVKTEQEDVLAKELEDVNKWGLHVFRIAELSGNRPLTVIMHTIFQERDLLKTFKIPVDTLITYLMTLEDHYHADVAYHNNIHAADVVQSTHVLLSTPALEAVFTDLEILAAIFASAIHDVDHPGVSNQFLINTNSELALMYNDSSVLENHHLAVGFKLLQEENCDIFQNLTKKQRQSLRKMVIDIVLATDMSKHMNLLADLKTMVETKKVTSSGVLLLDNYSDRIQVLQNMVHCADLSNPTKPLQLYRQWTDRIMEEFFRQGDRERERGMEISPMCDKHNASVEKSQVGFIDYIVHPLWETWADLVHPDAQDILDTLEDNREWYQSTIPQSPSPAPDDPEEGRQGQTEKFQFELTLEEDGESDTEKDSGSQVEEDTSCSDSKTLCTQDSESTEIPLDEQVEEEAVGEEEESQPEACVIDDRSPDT
Outline: as §1

[5] = system: TNF-α release from whole blood cultures stimulated with LPS; experiment: IC50 by TNF alpha production upon stimulation of whole blood cultures with LPS; assay type: cell-based; settings: human whole blood (buffy coat) culture, 100 ng/ml LPS, 4 hours; read-out: h TNFα IC50
Outline: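 Human buffy coat, diluted with 7 volumes of RPMI/2.5% heat-inactivated FBS, was preincubated with compound (8-point 1:3 series) for 1 h at 37 °C. It was then stimulated with 100 ng/ml LPS (final) for 4 h. Supernatant TNF-α was measured by sandwich ELISA at 450 nm, and IC50 was set between DMSO (0%) and PDE4-inhibitor (100%) controls.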

IC50 [1] | IC50 [2] | IC50 [3] | IC50 [4] | IC50 [5] | SMILES
< 10 µM | < 10 µM | ≤ 10 µM | < 10 µM | ≤ 10 µM | COc1ccc(-c2cn(C(=O)c3ccc(F)c4ccccc34)c3ncccc23)cc1OC [Compound 64, [3-(3,4-Dimethoxy-phenyl)-pyrrolo[2,3-b]pyridin-1-yl]-(4-fluoro-naphthalen-1-yl)-methanone]
< 10 µM | < 10 µM | ≤ 10 µM | < 10 µM | > 10 µM | COc1cccc(NC(=S)n2cc(-c3ccc(OC)c(OC)c3)c3cccnc32)c1 [Compound 42, 3-(3,4-dimethoxy-phenyl)-pyrrolo[2,3-b]pyridine-1-carbothioic acid (3-methoxy-phenyl)-amide]
< 10 µM | < 10 µM | ≤ 10 µM | < 10 µM | ≤ 10 µM | COc1ccc(-c2cn(S(=O)(=O)c3cccc4cc(C)cnc34)c3ccc(Cl)cc23)cc1OC [Compound 96, 8-[5-Chloro-3-(3,4-Dimethoxy-phenyl)-indole-1-sulfonyl]-3-methyl-quinoline]
< 10 µM | < 10 µM | ≤ 10 µM | < 10 µM | ≤ 10 µM | COc1ccc(-c2ccnc3[nH]ccc23)cc1OC [Compound 50, 4-(3,4-Dimethoxy-phenyl)-1H-pyrrolo[2,3-b]pyridine]
< 10 µM | < 10 µM | ≤ 10 µM | < 10 µM | ≤ 10 µM | COc1ccc(-c2cn(C(=O)c3cccc4cccnc34)c3ncccc23)cc1OC [Compound 66]
< 10 µM | < 10 µM | ≤ 10 µM | < 10 µM | ≤ 10 µM | CCOc1cc(NS(C)(=O)=O)ccc1C(=O)n1cc(-c2ccc(OC)c(OC)c2)c2cccnc21 [Compound 145, N-{4-[3-(3,4-Dimethoxy-phenyl)-pyrrolo[2,3-b]pyridine-1-carbonyl]-3-ethoxy-phenyl}-methanesulfonamide]
< 10 µM | < 10 µM | ≤ 10 µM | < 10 µM | ≤ 10 µM | COc1ccc(-c2c[nH]c3ncccc23)cc1OC1CCCC1 [Compound 88, 3-(3-Cyclopentyloxy-4-methoxy-phenyl)-1H-pyrrolo[2,3-b]pyridine]
< 10 µM | < 10 µM | ≤ 10 µM | < 10 µM | > 10 µM | COc1ccc(-c2cn(C(=O)Nc3ccc4c(c3)OCO4)c3ncccc23)cc1OC [Compound 36, 3-(3,4-Dimethoxy-phenyl)-pyrrolo[2,3-b]pyridine-1-carboxylic acidbenzo[1,3]dioxol-5-ylamide]
< 10 µM |  | ≤ 10 µM |  |  | COc1ccc(-c2c(C)[nH]c3ncccc23)cc1OC [Compound 143, 3-(3,4-Dimethoxy-phenyl)-2-methyl-1H-pyrrolo[2,3-b]pyridine]
< 10 µM | < 10 µM | ≤ 10 µM | < 10 µM | ≤ 10 µM | COc1ccc(-c2cn(C(=O)c3cccc4c(OC)cccc34)c3ncccc23)cc1OC [Compound 65, [3-(3,4-Dimethoxy-phenyl)-pyrrolo[2,3-b]pyridin-1-yl]-(5-methoxynaphthalen-1-yl)-methanone]
< 10 µM | < 10 µM | ≤ 10 µM | < 10 µM | ≤ 10 µM | COc1ccc(-c2cn(S(=O)(=O)c3ccccc3)c3ncccc23)cc1OC1CCCC1 [Compound 101, 1-Benzenesulfonyl-3-(3-cyclopentyloxy-4-methoxy-phenyl)-1H-pyrrolo[2,3-b]pyridine]
< 10 µM | < 10 µM | ≤ 10 µM | < 10 µM | ≤ 10 µM | COc1ccc(-c2cn(Cc3cccc([N+](=O)[O-])c3)c3ncccc23)cc1OC [Compound 53, 3-(3,4-Dimethoxy-phenyl)-1-(3-nitro-benzyl)-1H-pyrrolo[2,3-b]pyridine]
< 10 µM | < 10 µM | ≤ 10 µM | < 10 µM | ≤ 10 µM | COc1ccc(-c2cn(S(=O)(=O)c3cccc4cc(C)cnc34)c3ccc(Cl)cc23)cc1OC1CCCC1 [Compound 95, 8-[5-Chloro-3-(3-cyclopentyloxy-4-methoxy-phenyl)-indole-1-sulfonyl]-3-methyl-quinoline]
< 10 µM | < 10 µM | ≤ 10 µM | < 10 µM | ≤ 10 µM | CCCOc1ccccc1C(=O)n1cc(-c2ccc(OC)c(OC)c2)c2cccnc21 [Compound 113, [3-(3,4-Dimethoxy-phenyl)-pyrrolo[2,3-b]pyridin-1-yl]-(2-propoxy-phenyl)-methanone]
< 10 µM | < 10 µM | ≤ 10 µM | < 10 µM |  | COc1ccc(-c2cn(C(=O)c3c(OCC(F)(F)F)ccc4ccccc34)c3ncccc23)cc1OC1CCCC1 [Compound 124, [3-(3-Cyclopentyloxy-4-methoxy-phenyl)-pyrrolo[2,3-b]pyridin-1-yl]-[2-(2,2,2-trifluoro-ethoxy)-naphthalen-1-yl]-methanone]
< 10 µM | < 10 µM | ≤ 10 µM | > 10 µM |  | COc1ccc2c(c1)c(-c1ccc(OC)c(OC3CCCC3)c1)cn2S(=O)(=O)c1cccc2cc(C)cnc12 [Compound 97, 8-[5-Methoxy-3-(3-cyclopentyloxy-4-methoxy-phenyl)-indole-1-sulfonyl]-3-methyl-quinoline]
< 10 µM | < 10 µM | ≤ 10 µM | < 10 µM |  | CCOC(=O)c1cccc(NC(=O)n2cc(-c3ccc(OC)c(OC)c3)c3cccnc32)c1 [Compound 30, 3-[3-(3,4-Dimethoxy-phenyl)-pyrrolo[2,3-b]pyridine-1-carbonyl]-amino-benzoic acid ethyl ester]
< 10 µM | < 10 µM | ≤ 10 µM | < 10 µM |  | COc1ccc(-c2cn(C(=O)Nc3ccccc3)c3ncccc23)cc1OC [Compound 28, 3-(3,4-Dimethoxy-phenyl)-pyrrolo[2,3-b]pyridine-1-carboxylic acid phenylamide]
< 10 µM | < 10 µM | ≤ 10 µM | < 10 µM |  | COc1ccc(-c2cn(S(=O)(=O)c3ccccc3)c3ncccc23)cc1OCc1ccccc1 [Compound 103, 1-Benzenesulfonyl-3-(3-benzyloxy-4-methoxy-phenyl)-1H-pyrrolo[2,3-b]pyridine]
< 10 µM | < 10 µM | ≤ 10 µM | < 10 µM |  | COc1ccc(-c2cn(Cc3cc(-c4ccccc4)no3)c3ncccc23)cc1OC [Compound 104, 3-(3,4-Dimethoxy-phenyl)-1-(3-phenyl-isoxazol-5-ylmethyl)-1H-pyrrolo[2,3-b]pyridine]

SMILES | IC50 [1] | IC50 [2] | IC50 [3] | IC50 [4] | IC50 [5]
CCOc1cc(N)ccc1C(=O)n1cc(-c2ccc(OC)c(OC)c2)c2cccnc21 [Compound 144, (4-Amino-2-ethoxy-phenyl)-[3-(3,4-dimethoxy-phenyl)-pyrrolo[2,3-b]pyridin-1-yl]-methanone] | < 10 µM | < 10 µM | ≤ 10 µM | < 10 µM | ≤ 10 µM
